How the values were obtained:
[1] = test system: muscle atrophy induced mice; experiment: Muscle weight (gastrocnemius, quadriceps) per body weight in immobilization-induced muscle atrophy mice; assay type: in vivo, C57BL/6 mice
Method: (§1) First, 5-week-old male C57BL/6 mice were adapted to the animal laboratory environment for 7 days and then divided into 5 groups according to the experimental conditions. Particularly, the experimental groups were divided into the non-treated control group (normal group, Cont), the group induced with muscle atrophy (induction group, IM), the positive control group induced with muscle atrophy and treated with 370 mg/kg of HMB (beta-hydroxy beta-methlybutyrate) (HMB treated group, HMB 370), the group induced with muscle atrophy and treated with low dose (100 mg/kg) of the Panax ginseng berry extract of Example 1 (Panax ginseng berry extract treated group, GBE 100), and the group induced with muscle atrophy and treated with high dose (200 mg/kg) of the Panax ginseng berry extract of Example 1 (Panax ginseng berry extract treated group, GBE 200). Muscle atrophy was induced by immobilization in which a fixation device made of 1.5 mL microfuge tube, clip and velcro tape was applied to one hind leg of a mouse according to ‘Disease models & mechanisms, 8(9), 1059-1069, 2015’. HMB and the Panax ginseng berry extract were dissolved in 0.5% carboxymethyl cellulose (CMC) and administered to the mouse orally once a day for 14 days from the day of the leg immobilization. After 14 days, the gastrocnemius and quadriceps of the hind leg were extracted, weighed, and standardized based on the body weight.

[2] = test system: muscle atrophy induced mice; experiment: Muscle fiber size and cross-sectional area of gastrocnemius (H&E, image J) in muscle atrophy induced mice; assay type: in vivo, C57BL/6 mice; details: 14 days
Method: as §1
Whether the Panax ginseng berry extract alleviates the muscle fiber cross-sectional area reduction caused by muscle atrophy was confirmed by the following method. Particularly, the gastrocnemius tissue extracted in Experimental Example 1-1 was fixed with 4% paraformaldehyde, stained with hematoxylin and eosin (H&E), and the muscle fiber cross-sectional area was quantified using image J software.

CC(C)(O)CC(=O)O [HMB, beta-hydroxy beta-methlybutyrate]
weight of the quadriceps reduced compared to the normal group ([1]; 370 mg/kg orally once a day for 14 days, induction group (IM) about 33%): about 17% | weight of the gastrocnemius reduced compared to the normal group ([1]; 370 mg/kg orally once a day for 14 days, induction group (IM) about 40%): about 24% | protective ability of muscle atrophy (muscle weight) ([1]; 370 mg/kg orally, 14 days, gastrocnemius and quadriceps): about 16% | muscle atrophy protection, muscle fiber cross-sectional area ([2]; 370 mg/kg orally): about 13% | muscle fiber cross-sectional area decreased compared to the normal group ([2]; 370 mg/kg orally, induction group about 60%): about 47% | reduction in muscle fiber size (FIG. 3) ([2]; gastrocnemius, HMB 370 mg/kg, extract 100 and 200 mg/kg orally): alleviated

Reference: US11612629B2, “Pharmaceutical composition for preventing or treating muscle diseases, containing ginseng berry extract as active ingredient” (Holistic Bio Co., Ltd., priority 2018, dated 2023)
